Each structure is given as a SMILES string.

The assay relates to U2OS cells. The assay is described as follows: EJ5-GFP (NHEJ) assay. The format is cell-based, Human. The conditions noted are these: 5 μM ATRi, 8 days. The protocol:
Human U2OS, HCT116, hTERT RPE-1, HEK293T, HeLa, U87, T98G, A2780, and human skin fibroblast cells (GM08398 and GM18366) were grown in DMEM media supplemented with 10% bovine calf serum, penicillin/streptomycin and non-essential amino acids. SV40 large T antigen transformed hTERT RPE-1 cells were generated by infecting hTERT RPE-1 cells with a SV40 large T antigen (SV40 LT)-expressing retrovirus and were selected using 500 μg/ml G418. The stable SV40 large T antigen transformed hTERT RPE-1 cell line was then maintained in culture media supplemented 500 μg/ml G418. […]
For the DR-GFP assay, cells (U2OS, HCT116, hTERT RPE-1, HEK293T, HeLa, U87, T98G, A2780, 293-T-REX-E2F6 cells and SV40 large T antigen transformed hTERT RPE-1) were transfected with the mCherry plasmid or DR-GFP reporter plasmid (pDR-GFP; addgene plasmid 26475) together with a plasmid coding for I-SceI (pCBASceI; addgene plasmid 26477) or DR-GFP reporter plasmid together with an empty plasmid pCAGGS. Two days after transfection, cells were trypsinized, resuspended in PBS and then analyzed by flow cytometry using FACSAria Fusion or Accuri C6 cytometer (BD). […]

Regarding `CS(=O)(=O)c1ccc(-c2cnc(N)c(C(=O)Nc3ccccc3)n2)cc1` [ATRi, VE-821], the “NHEJ efficiency (EJ5-GFP)” value is “does not result in a significant change in NHEJ efficiency”.

The values are drawn from US20190365745A1, “USE OF CHRONIC TREATMENT WITH ATR INHIBITORS TO SENSITIZE CANCER CELLS TO PARP INHIBITORS” (Cornell University, priority 2018, published 2019).
